Measurements published in patent publication US10092537B2, “Use for PAI-1 inhibitor” (RENASCIENCE CO., LTD., priority 2013, dated 2018).
Counter-ions that a name gives are not always drawn.

Biological target: human PAI-1 (Homo sapiens, UniProt P05121)
Assay: Measurement of PAI-1 inhibitory activity of compound group 1 (t-PA, Spectrozyme t-PA chromogenic substrate)
Conditions: read-out: PAI-1 activity %
Experimental: Subsequently, human-derived tissue plasminogen activator (t-PA) (manufactured by American Diagnostica, Inc. (USA); the same applies hereinafter) adjusted to 0.05 pmol/μL was added thereto, and the mixture was further incubated at 37° C. for 60 minutes. Then, 0.25 mM of Spectrozyme t-PA synthetic substrate (manufactured by American Diagnostica, Inc. (USA); the same applies hereinafter), which is a chromogenic substrate, was added. The final mixture contained 50 mM Tris-HCl (pH 8), 150 mM NaCl, 1% DMSO, 0.1% PEG-6000, 0.2 mM CHAPS, 5 nM PAI-1, 2 nM t-PA, 0.2 mM Spectrozyme t-PA synthetic substrate, and each compound (10 μM or 2.5 μM).
Free radical p-nitroaniline removed from the chromogenic substrate (Spectrozyme t-PA) by t-PA action was measured using a spectrophotometer at an absorbance of 405 nm at 20-minute intervals, for 120 minutes.

Chain of human PAI-1 (P05121 24-402): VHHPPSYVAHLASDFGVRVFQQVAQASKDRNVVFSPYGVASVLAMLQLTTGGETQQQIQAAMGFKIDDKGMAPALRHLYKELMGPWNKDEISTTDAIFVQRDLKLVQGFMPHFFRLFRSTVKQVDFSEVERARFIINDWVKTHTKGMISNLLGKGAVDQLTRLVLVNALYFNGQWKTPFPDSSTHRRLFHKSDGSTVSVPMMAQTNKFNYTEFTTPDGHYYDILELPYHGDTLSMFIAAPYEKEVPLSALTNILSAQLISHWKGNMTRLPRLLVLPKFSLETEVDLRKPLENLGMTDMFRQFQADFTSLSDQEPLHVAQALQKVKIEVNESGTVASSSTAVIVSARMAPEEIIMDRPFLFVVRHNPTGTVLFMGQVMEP

activity at 2.5 µM | activity at 10 µM | SMILES
102% | 19.1% | O=C(Cn1ccc2cc(Br)ccc21)Nc1ccc(Cl)cc1C(=O)O [Example 24, 2-{[(5-bromo-1H-indol-1-yl)acetyl]amino}-5-chlorobenzoic acid]
97% | 5.5% | O=C(Nc1ccc(Cl)cc1C(=O)O)C1=CC2(CCCCC2)CCC1 [Example 84, 5-chloro-2-[(spiro[5.5]undec-1-en-2-ylcarbonyl)amino]benzoic acid]
80.5% | 0.3% | C#Cc1ccc(NC(=O)c2ccc(C3CCCCC3)cc2)c(C(=O)O)c1 [Example 95, 2-{[(4-cyclohexylphenyl)carbonyl]amino}-5-ethynylbenzoic acid]
0% | 0% | O=C(Nc1ccc(Cl)cc1C(=O)O)c1cccc(-c2cccc3ccccc23)c1 [Example 58, 5-chloro-2-({[3-(naphthalen-1-yl)phenyl]carbonyl}amino)benzoic acid]
7.2% | 5.1% | O=C(Nc1ccc(Cl)cc1C(=O)O)c1ccc(OCC23CC4CC(CC(C4)C2)C3)cc1 [Example 52, 2-({[4-(adamantan-1-ylmethoxy)phenyl]carbonyl}amino)-5-chlorobenzoic acid]
82.1% | 1.1% | Cc1ccc(-c2ccc(OCC(=O)Nc3ccc(Cl)cc3C(=O)O)cc2)cc1 [Example 49, 5-chloro-2-({[(4′-methylbiphenyl-4-yl)oxy]acetyl}amino)benzoic acid]
44.5% | 1.6% | O=C(Nc1ccc(Cl)cc1C(=O)O)c1cccc(C2=CCCCC2)c1 [Example 79, 5-chloro-2-({[3-(cyclohex-1-en-1-yl)phenyl]carbonyl}amino)benzoic acid]
85.8% | 0% | O=C(COc1cccc(C2=CCCCC2)c1)Nc1ccc(Cl)cc1C(=O)O [Example 25, 5-chloro-2-({[3-(cyclohex-1-en-1-yl)phenoxy]acetyl}amino)benzoic acid]
79.6% | 8.1% | O=C(Nc1ccc(Cl)cc1C(=O)O)c1ccc(C(=O)c2ccccc2)cc1 [Known compound (4), 5-chloro-2-{[(4-(phenylcarbonyl)phenyl]carbonyl}amino} benzoic acid, reference compound]
63.5% | 1.4% | Cc1ccc(C23CC4CC(CC(C(=O)Nc5ccc(Cl)cc5C(=O)O)(C4)C2)C3)cc1 [Example 86, 5-chloro-2-({[3-(4-methylphenyl)adamantan-1-yl]carbonyl}amino)benzoic acid]
88% | 20.2% | O=C(O)c1cc(Cl)ccc1NC(=O)C1CCCN(C(=O)c2cccc(-c3ccccc3)c2)C1 (stereo not drawn) [Example 31, 2-({[1-(biphenyl-3-ylcarbonyl)piperidin-3-yl]carbonyl}amino)-5-chlorobenzoic acid]
36.3% | 0.3% | O=C(COc1ccc(C2CCCCC2)cc1)Nc1ccc(Cl)cc1C(=O)O [Known compound (3), 5-chloro-2-{[(4-cyclohexylphenoxy)acetyl]amino} benzoic acid, reference compound]
96.9% | 16.7% | O=C(/C=C(/Cl)C1CCCCC1)Nc1ccc(Cl)cc1C(=O)O [Example 91, 5-chloro-2-{[(2E)-3-chloro-3-cyclohexylprop-2-enoyl]amino}benzoic acid]
86.4% | 4.7% | O=C(O)c1cc(Cl)ccc1NC(=O)N1CCN(C(c2ccccc2)c2ccccc2)CC1 [Example 75, 5-chloro-2-({[4-(diphenylmethyl)piperazin-1-yl]carbonyl}amino)benzoic acid hydrochloride]
23.9% | 5% | O=C(Nc1ccc(Cl)cc1C(=O)O)c1ccc(CC23CC4CC(CC(C4)C2)C3)cc1 [Example 96, 2-({[4-(adamantan-1-ylmethyl)phenyl]carbonyl}amino)-5-chlorobenzoic acid]
1.7% | 1.4% | O=C(Nc1ccc(C2CCCCC2)cc1C(=O)O)c1ccc(C2CCCCC2)cc1 [Example 82, 5-cyclohexyl-2-{[(4-cyclohexylphenyl)carbonyl]amino}benzoic acid]
72.4% | 2.5% | O=C(COc1ccc(-c2ccccc2)cc1)Nc1ccc(Cl)cc1C(=O)O [Example 19, 2-{[(biphenyl-4-yloxy)acetyl]amino}-5-chlorobenzoic acid]
25% | 0.9% | O=C(O)c1cc(Cl)ccc1NC(=O)c1cc2cc(-c3ccccc3)ccc2n1CCCO [Example 60, 5-chloro-2-({[1-(3-hydroxypropyl)-5-phenyl-1H-indol-2-yl]carbonyl}amino)benzoic acid]
41.5% | 0.1% | CC1(c2ccc(C(=O)Nc3ccc(Cl)cc3C(=O)O)cc2)CCCCC1 [Example 98, 5-chloro-2-({[4-(1-methylcyclohexyl)phenyl]carbonyl}amino)benzoic acid]
82.2% | 31.2% | O=C(CNC(c1ccccc1)c1ccccc1)Nc1ccc(Cl)cc1C(=O)O [Example 73, 5-chloro-2-{[N-(diphenylmethyl)glycyl]amino}benzoic acid]

activity at 2.5 µM | activity at 10 µM | SMILES
94.4% | 15.5% | O=C(COc1ccc(-c2ccco2)cc1)Nc1ccc(Cl)cc1C(=O)O [Example 54, 5-chloro-2-({[4-(furan-2-yl)phenoxy]acetyl}amino)benzoic acid]
89.9% | 23.5% | O=C(Nc1ccc(Cl)cc1C(=O)O)c1ccc(-c2ccccc2)o1 [Example 105, 5-chloro-2-{[(5-phenylfuran-2-yl)carbonyl]amino}benzoic acid]
37.8% | 1.7% | O=C(Cn1ccc2cc(-c3ccccc3)ccc21)Nc1ccc(Cl)cc1C(=O)O [Example 51, 5-chloro-2-{[(5-phenyl-1H-indol-1-yl)acetyl]amino}benzoic acid]
100% | 6.7% | O=C(O)c1cc(Cl)ccc1NC(=O)c1cc(-c2ccccc2)nc2ccccc12 [Example 107, sodium 5-chloro-2-{[(2-phenylquinolin-4-yl)carbonyl]amino}benzoate]
84.8% | 0.9% | O=C(Nc1ccc(Cl)cc1C(=O)O)c1ccc(-c2ccc(F)cc2)s1 [Example 104, 5-chloro-2-({[5-(4-fluorophenyl)thiophen-2-yl]carbonyl}amino)benzoic acid]
98.4% | 14.1% | O=C(Nc1ccc(Cl)cc1C(=O)O)c1cc(C(F)(F)F)cc(C(F)(F)F)c1 [Example 43, 2-({[3,5-bis(trifluoro-methyl)phenyl)carbonyl}amino)-5-chlorobenzoic acid]
72.4% | 12.9% | O=C(CC(c1ccccc1)c1ccccc1)Nc1ccc(Cl)cc1C(=O)O [Example 41, 5-chloro-2-[(3,3-diphenylpropanoyl)amino]benzoic acid]
77.4% | 21.9% | CC(C)(C)c1cccc(OCC(=O)Nc2ccc(Cl)cc2C(=O)O)c1 [Example 16, 2-{[(3-tert-butylphenoxy)acetyl]amino}-5-chlorobenzoic acid]
92.4% | 38.9% | COc1ccccc1-c1cccc(OCC(=O)Nc2ccc(Cl)cc2C(=O)O)c1 [Example 61, 5-chloro-2-({[(2′-methoxybiphenyl-3-yl)oxy]acetyl}amino)benzoic acid]
44.7% | 0.6% | O=C(Nc1ccc(Cl)cc1C(=O)O)c1ccc(C2CCCCC2)cc1 [Example 69, 5-chloro-2-{[(4-cyclohexylphenyl)carbonyl]amino}benzoic acid]
10% | 0.3% | O=C(COc1ccc(C23CC4CC(CC(C4)C2)C3)cc1)Nc1ccc(Cl)cc1C(=O)O [Example 21, 2-({[4-(adamantan-1-yl)phenoxy]acetyl}amino)-5-chlorobenzoic acid]
2.5% | 1.7% | Cn1c(C(=O)Nc2ccc(Cl)cc2C(=O)O)cc2cc(-c3ccccc3)ccc21 [Example 48, 5-chloro-2-{[(1-methyl-5-phenyl-1H-indol-2-yl)carbonyl]amino}benzoic acid]
97.5% | 11% | O=C(O)c1cc(Cl)ccc1NC(=O)C1CCCC2(CCCCC2)C1 (stereo not drawn) [Example 85, 5-chloro-2-[(spiro[5.5]undec-2-ylcarbonyl)amino]benzoic acid]
89.9% | 0.7% | O=C(Nc1ccc(Cl)cc1C(=O)O)c1ccc(C(O)C23CC4CC(CC(C4)C2)C3)cc1 (stereo not drawn) [Example 97, 2-[({4-[adamantan-1-yl(hydroxy)methyl]phenyl}carbonyl)amino]-5-chlorobenzoic acid]
93.2% | 24.3% | O=C(COc1ccc(-c2ccoc2)cc1)Nc1ccc(Cl)cc1C(=O)O [Example 29, 5-chloro-2-({[4-(furan-3-yl)phenoxy]acetyl}amino)benzoic acid]
65.3% | 0.1% | O=C(/C=C/c1cccc(C2=CCCCC2)c1)Nc1ccc(Cl)cc1C(=O)O [Example 90, 5-chloro-2-({(2E)-3-[3-(cyclohex-1-en-1-yl)phenyl]prop-2-enoyl}amino)benzoic acid]
58.9% | 0.1% | Cc1cc(C)cc(-c2ccc(OCC(=O)Nc3ccc(Cl)cc3C(=O)O)cc2)c1 [Example 50, 5-chloro-2-({[(3′,5′-dimethylbiphenyl-4-yl)oxy]acetyl}amino)benzoic acid]
3.5% | 7.4% | O=C(C#Cc1ccc(C23CC4CC(CC(C4)C2)C3)cc1)Nc1ccc(Cl)cc1C(=O)O [Example 94, 2-({3-[4-(adamantan-1-yl)phenyl]prop-2-ynoyl}amino)-5-chlorobenzoic acid]
25.3% | 0.3% | O=C(/C=C/c1ccc(-c2ccccc2)cc1)Nc1ccc(Cl)cc1C(=O)O [Example 78, 2-{[(2E)-3-(biphenyl-4-yl)prop-2-enoyl]amino}-5-chlorobenzoic acid]
